In US6281356A, “Substituted pyrroles” (Hoffmann-La Roche Inc., priority 2000, dated 2001):
Structures can show the parent of a compound that is named as a salt.

Each molecule was assayed on epithelial breast carcinoma cell line (MDAMB-435) (assay: Antiproliferative activity (growth inhibition, MTT), epithelial breast carcinoma cell line MDAMB-435). Conditions: Homo sapiens, MDA-MB-435, 120 h, 5 days post drug addition, 0.1% DMSO, read-out: IC50 (growth inhibition of MDAMB-435 cells).
Type: cell-based
Procedure: The epithelial breast carcinoma cell line (MDAMB-435) was purchased from ATCC (American Type Cell Culture Collection) and was grown in culture medium as recommended by ATCC. For analysis of the effect of various compounds of formula I on the growth of these cells, the cells were plated at a concentration of 1500 cells/well in a 96 well tissue culture plate ("test plate"). The day after the cells were plated, the compounds to be analyzed were dissolved in 100% DMSO (dimethyl sulfoxide) to yield at 10 mM stock solution. Each compound was diluted in H2 O to 1 mM and was added to triplicate wells in the first row of a 96 well master plate containing medium to yield a final concentration of 40 μM. The compounds were then serially diluted in medium in the "master plate". The diluted compound(s) were then transferred to test plates containing cells. A row of vehicle "control cells" received DMSO. The final concentration of DMSO in each well was 0.1%. 5 days post drug addition, the plate was analyzed as described below.
MTT (3-(4-5 methyl thiazole-2-yl)-2,5-diphenyl tetrazolium bromide; thiazolyl blue) was added to each well to yield a final concentration of 1 mg/ml. The plate was then incubated at 37° C. for 21/2-3 hours. The MTT-containing medium was then removed and 50 μl of 100% ethanol was added to each well to dissolve the formazan. The absorbences were then read using an automated plate reader (Bio-tek microplate reader). IC50 s were calculated using the Reed and Munsch equation, see Am. J. Hygiene Vol. 27 pgs. 493-497,1938.

Row | IC50 [nM] | Compound
1 | 4 | Cn1cc(C2=C(c3cn(C)c4cc(N5CCOCC5)ccc34)C(=O)NC2=O)c2ccc(C#N)cc21 [Example 13, 1-Methyl-3-[4-(1-methyl-6-morpholin-4-yl-1H-indol-3-yl)-2,5-dioxo-2,5-dihydro-1H-pyrrole-3-yl]-1H-indole-6-carbonitrile]
2 | 30 | Cn1cc(C2=C(c3cn(C)c4cc(N5CCOCC5)ccc34)C(=O)NC2=O)c2ccc(F)cc21 [Example 14b, 3-(6-Fluoro-1-methyl-1H-indol-3-yl)-4-(1-methyl-6-morpholin-4-yl-1H-indol-3-yl)pyrrole-2,5-dione]
3 | 60 | Cn1ccnc1-c1ccc2c(C3=C(c4cn(C)c5ccccc45)C(=O)NC3=O)cn(C)c2c1 [Example 4b, 3-(1-Methyl-1H-indol-3-yl)-4-[1-methyl-6-(1-methyl-1H-imidazol-2-yl)-1H-indol-3-yl]-pyrrole-2,5-dione]
4 | 24 | Cn1cc(C2=C(c3cn(C)c4cc(-c5nccs5)ccc34)C(=O)NC2=O)c2ccccc21 [Example 4a, 3-(1-Methyl-1H-indol-3-yl)-4-(1-methyl-6-thiazol-2-yl-1H-indol-3-yl)pyrrole-2,5-dione]
5 | 250 | Cn1nccc1-c1ccc2c(C3=C(c4cn(C)c5ccccc45)C(=O)NC3=O)cn(C)c2c1 [Example 2k, 3-(1-Methyl-1H-indol-3-yl)-4-[1-methyl-6-(2-methyl-2H-pyrazol-3-yl)-1H-indol-3-yl]pyrrole-2,5-dione]
6 | 20 | Cn1nccc1-c1ccc2c(C3=C(c4cn(C)c5cc([N+](=O)[O-])ccc45)C(=O)NC3=O)cn(C)c2c1 [Example 2j, 3-[1-Methyl-6-(2-methyl-2H-pyrazol-3-yl)-1H-indol-3-yl]-4-(1-methyl-6-nitro-1H-indol-3-yl)pyrrole-2,5-dione]
7 | 70 | Cn1cc(C2=C(c3c[nH]c4ccccc34)C(=O)NC2=O)c2ccc(N3CCOCC3)cc21 [Example 12c, 3-(1H-Indol-3-yl)-4-(1-methyl-6-morpholin-4-yl-1H-indol-3-yl)pyrrole-2,5-dione]
8 | 60 | COc1ccc2c(C3=C(c4cn(C)c5cc(-c6cncn6C)ccc45)C(=O)NC3=O)cn(C)c2c1 [Example 2b, 3-(6-Methoxy-1-methyl-1H-indol-3-yl)-4-[1-methyl-6-(3-methyl-3H-imidazol-4-yl)-1H-indol-3-yl]pyrrole-2,5-dione]
9 | 70 | Cn1nccc1-c1ccc2c(C3=C(c4cn(C)c5cc(Br)ccc45)C(=O)NC3=O)cn(C)c2c1 [Example 2l, 3-(6-Bromo-1-methyl-1H-indol-3-yl)-4-[1-methyl-6-(2-methyl-2H-pyrazol-3yl)-1H-indol-3-yl]pyrrole-2,5-dione]
10 | 20 | COCn1cc(C2=C(c3cn(C)c4cc([N+](=O)[O-])ccc34)C(=O)NC2=O)c2ccc(N3CCCC3)cc21 [Example 12g, 3-(1-Methoxymethyl-6-pyrrolidin-1-yl-1H-indol-3-yl)-4-(1-methyl-6-nitro-1H-indol-3-yl)pyrrole-2,5-dione]
11 | 30 | Cn1cc(C2=C(c3cn(C)c4cc([N+](=O)[O-])ccc34)C(=O)NC2=O)c2ccc(-n3ccnc3)cc21 [Example 8a, 3-(6-Imidazol-1-yl-1-methyl-1H-indol-3-yl)-4-(1-methyl-6-nitro-1H-indol-3-yl)-pyrrole-2,5-dione]
12 | 3 | Cn1cc(C2=C(c3cn(C)c4cc(N5CCOCC5)ccc34)C(=O)NC2=O)c2ccc(Br)cc21 [Example 14d, 3-(6-Bromo-1-methyl-1H-indol-3-yl)-4-(1-methyl-6-morpholin-4-yl-1H-indol-3-yl)pyrrole-2,5-dione]
13 | 5 | Cn1cc(C2=C(c3cn(C)c4cc(N5CCCC5)ccc34)C(=O)NC2=O)c2ccc(Br)cc21 [Example 14f, 3-(6-Bromo-1-methyl-1H-indol-3-yl)-4-(1-methyl-6-pyrrolidin-1-yl-1H-indol-3-yl)pyrrole-2,5-dione]
14 | 10 | Cn1cc(C2=C(c3cn(C)c4cc([N+](=O)[O-])ccc34)C(=O)NC2=O)c2ccc(-c3ccns3)cc21 [Example 2m, 3-(6-Isothiazol-5-yl-1-methyl-1H-indol-3-yl)-4-(1-methyl-6-nitro-1H-indol-3-yl)pyrrole-2,5-dione]
15 | 40 | Cn1cc(C2=C(c3cn(C)c4cc(-c5cccs5)ccc34)C(=O)NC2=O)c2ccccc21 [Example 3, 3-(1-Methyl-1H-indol-3-yl)-4-(1-methyl-6-thiophen-2-yl-1H-indol-3-yl)pyrrole-2,5 dione]
16 | 40 | Cn1cc(C2=C(c3cn(C)c4cc([N+](=O)[O-])ccc34)C(=O)NC2=O)c2ccc(-c3ccsc3)cc21 [Example 6, 3-(1-methyl-6-nitro-1H-indol-3-yl)-4-(1-methyl-6-thiophen-3-yl-1H-indol-3-yl)pyrrole-2,5-dione]

Row | IC50 [nM] | Compound
17 | < 10 | Cc1ccc2c(C3=C(c4cn(C)c5cc(N6CCOCC6)ccc45)C(=O)NC3=O)cn(C)c2c1 [Example 12b, 3(1,6-Dimethyl-1H-indol-3-yl)-4-(1-methyl-6-morpholin-4-yl-1H-indol-3-yl)pyrrole-2,5-dione]
18 | 20 | Cn1cc(C2=C(c3cn(C)c4cc([N+](=O)[O-])ccc34)C(=O)NC2=O)c2ccc(-c3cnc[nH]3)cc21 [Example 2f, 3-[6-(3H-Imidazol-4-yl)-1-methyl-1H-indol-3-yl]-4-(1-methyl-6-nitro-3-yl)pyrrole-2,5-dione hydrochloride]
19 | 250 | Cc1nccn1-c1ccc2c(C3=C(c4cn(C)c5cc([N+](=O)[O-])ccc45)C(=O)NC3=O)cn(C)c2c1 [Example 8b, 3-[1-Methyl-6-(2-methyl-imidazol-1-yl)-1H-indol-3-yl]-4-(1-methyl-6-nitro-1H-indol-3-yl)-pyrrole-2,5-dione]
20 | 20 | Cn1cc(C2=C(c3cn(C)c4cc([N+](=O)[O-])ccc34)C(=O)NC2=O)c2ccc(-n3cccn3)cc21 [Example 8c, 3-(1-Methyl-6-nitro-1H-indol-3-yl)-4-(1-methyl-6-pyrazol-1-yl-1H-indol-3-yl)pyrrole-2,5-dione]
21 | 230 | Cn1cc(C2=C(c3cn(C)c4cc(N5CCCCC5)ccc34)C(=O)NC2=O)c2ccccc21 [Example 12l, 3-(1-Methyl-1H-indol-3-yl)-4-(1-methyl-6-piperidin-1-yl-1H-indol-3-yl)pyrrole-2,5-dione]
22 | 10 | Cn1cc(C2=C(c3cn(C)c4cc([N+](=O)[O-])ccc34)C(=O)NC2=O)c2ccc(-c3ccco3)cc21 [Example 2h, 3-(6-Furan-2-yl-1-methyl-1H-indol-3-yl)-4-(1-methyl-6-nitro-1H-indol-3-yl)pyrrole-2,5-dione]
23 | 40 | Cn1cc(C2=C(c3cn(C)c4cc(-c5ccsc5)ccc34)C(=O)NC2=O)c2ccccc21 [Example 5, 3-(1-Methyl-1H-indol-3-yl)-4-(1-methyl-6-thiophen-3-yl-1H-indol-3-yl)pyrrole-2,5-dione]
24 | 37 | Cn1cc(C2=C(c3c[nH]c4cc(N5CCOCC5)ccc34)C(=O)NC2=O)c2ccccc21 [Example 12o, 3-(1-Methyl-1H-indol-3-yl)-4-(6-morpholin-4-yl-1H-indol-3-yl)pyrrole-2,5-dione]
25 | 5 | Cn1cncc1-c1ccc2c(C3=C(c4cn(C)c5cc([N+](=O)[O-])ccc45)C(=O)NC3=O)cn(C)c2c1 [Example 1, 3-[1-Methyl-6-(3-methyl-3H-imidazol-4-yl)-1H-indol-3-yl]-4-(1-methyl-6-nitro-1H-indol-3-yl)-pyrrole-2,5-dione]
26 | 25 | Cn1cc(C2=C(c3cn(C)c4cc(-n5ccnc5)ccc34)C(=O)NC2=O)c2ccc(Br)cc21 [Example 10a, 3-(6-Bromo-1-methyl-1H-indol-3-yl)-4-(6-imidazol-1-yl-1-methyl-1H-indol-3-yl)-pyrrole-2,5-dione]
27 | < 10 | Cn1cc(C2=C(c3cn(C)c4cc(N5CCCC5)ccc34)C(=O)NC2=O)c2ccc(C#N)cc21 [Example 15, 1-Methyl-3-[4-(1-methyl-6-pyrrolidin-1-yl-1H-indol-3-yl)-2,5-dioxo-2,5dihydro-1H-pyrrole-3-yl]-1H-indole-6-carbonitrile]
28 | 50 | Cn1cc(C2=C(c3cn(C)c4cc([N+](=O)[O-])ccc34)C(=O)NC2=O)c2ccc(-c3cncnc3)cc21 [Example 18, 3-(1-Methyl-6-nitro-1H-indol-3-yl)-4-(1-methyl-6-pyrimidin-5-yl-1H-indol-3-yl)pyrrole-2,5-dione]
29 | 60 | COc1ccc2c(C3=C(c4cn(C)c5cc(-n6ccnc6)ccc45)C(=O)NC3=O)cn(C)c2c1 [Example 9, 3-(6-Imidazol-1-yl-1-methyl-1H-indol-3-yl)-4-(6-methoxy-1-methyl-1H-indol-3-yl)-pyrrole-2,5-dione]
30 | < 10 | Cn1cc(C2=C(c3cn(C)c4cc([N+](=O)[O-])ccc34)C(=O)NC2=O)c2ccc(N3CCOCC3)cc21 [Example 12a, 3-(1-Methyl-6-morpholin-4-yl-1H-indol-3-yl)-4-(1-methyl-6-nitro-1H-indol-3-yl)pyrrole-2,5-dione]
31 | 20 | Cn1cc(C2=C(c3cn(C)c4cc(-c5ccco5)ccc34)C(=O)NC2=O)c2ccccc21 [Example 2g, 3-(6-Furan-2-yl-1-methyl-1H-indol-3-yl)-4-(1-methyl-1H-indol-3-yl)pyrrole-2,5-dione]
